Data: publication PMC11790914, “Chemogenomics for steroid hormone receptors (NR3)” (Communications Chemistry, 2025)
“And” between values parts separate entries of the source, which are not always exact repeats. Equal entries are not always repeated.

Assays:
TRIM24 = target: T1, TRIM24 (Homo sapiens, UniProt O15164); experiment: Liability panel screening by DSF: TRIM24; format: binding; conditions: DSF, 20 µM, n=2; read-out: Mean ΔTM TRIM24
T1 construct: This panel comprised ten highly ligandable kinases and bromodomains; made in house
T1 sequence (O15164 899-1004 limits assumed): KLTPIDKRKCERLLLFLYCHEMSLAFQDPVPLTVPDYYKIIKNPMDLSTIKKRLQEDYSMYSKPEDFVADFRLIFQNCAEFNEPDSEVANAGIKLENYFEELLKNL
Description: (§1) Reference ligands are listed in the methods section.
(§2) In-house produced recombinantly expressed proteins[62] of the liability panel targets were diluted in a buffer containing 10 mM HEPES (pH 7.5) and 500 mM NaCl to a concentration of 2 µM. SYPRO Orange (Invitrogen, Carlsbad, California, USA; #S6650) as a fluorescence probe was added at a 1:1000 dilution to the proteins. […] Temperature-dependent unfolding profiles were measured on a QuantStudio™ 5 real-time PCR machine (Thermo Fisher Scientific, Waltham, Massachusetts, USA; #A28140). […] The temperature was increased 3 °C per minute to a maximum temperature of 85 °C. Experiments were run as technical duplicates. […] Data were analyzed with the internal Thermal Shift Software (version 1.4, Thermo Fisher Scientific) using the Boltzmann equitation to determine the inflection point of the transition curve. Differences in melting temperature are given as ∆Tm in K. […]
(§3) scanning fluorimetry (DSF).
(§4) a concentration of 20 µM.

HEK293T cells [1] = experiment: Cytotoxicity: metabolic activity (WST-8 / CCK-8 assay); conditions: 1 µM; HEK293T, 24 h; WST-8; normalized to 0.1% DMSO; single replicates
CDK2 = target: T2, CDK2 (Homo sapiens, UniProt P24941); experiment: Liability panel screening by DSF: CDK2; format: binding; conditions: DSF, 20 µM, n=2; read-out: Mean ΔTM CDK2
T2 construct: made in house
Description: as §1, §2, §3, §4

BRD4 = target: T3, BRD4 (Homo sapiens, UniProt O60885); experiment: Liability panel screening by DSF: BRD4; format: binding; conditions: DSF, 20 µM, n=2; read-out: Mean ΔTM BRD4
T3 construct: This panel comprised ten highly ligandable kinases and bromodomains; made in house
Description: as §1, §2, §3, §4

HEK293T cells [2] = experiment: Cytotoxicity: growth-rate (change in confluence over 24 h); conditions: 1 µM, normalized to 0.1% DMSO control, single replicates (n=1...)
HEK293T cells [3] = experiment: Cytotoxicity: necrosis induction (red fluorescent dye for permeable plasma membranes); format: cell-based; conditions: 1 µM, 24 h, necrotic cell count normalized to 0.1% DMSO, single replicates;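 further: compounds applied in DMEM high glucose with 0.1% FCS and 0.1% DMSO, necrotic HEK293T cells counted by red staining of cells whose plasma membranes had become permeable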
Description: Cells were incubated with the test compounds at the indicated concentrations solubilized with 0.1% DMSO for 24 h. […] Necrotic cells were detected with a red fluorescent dye that labels cells with permeable plasma membranes after 24 h treatment and the necrotic cell count was normalized to 0.1% DMSO treated cells (n = 4). e NR family selectivity profiling of NR3 CG compound candidates in uniform Gal4-hybrid reporter gene assays for selected NR representing the NR1, NR2, NR4 and NR5 families.
HEK293T cells (German Collection of Microorganisms and Cell Culture GmbH, DSMZ; #ACC305) were cultured in DMEM high glucose, supplemented with 10% fetal calf serum (FCS), sodium pyruvate (1 mM), penicillin (100 µ/mL) and streptomycin (100 µg/mL) at 37 °C and 5% (v/v) CO2, and seeded in pre-coated (10 µg/mL collagen G solution (Merck KgaA; #L7213) for 30 min at 37 °C) 96-well plates (2 × 10^5 cells per well). After 24 h, the cells were treated with the respective NR3 CG compound candidate at the recommended concentration, bexarotene (100 µM) or doxorubicin (30 µM) as positive controls in DMEM high glucose supplemented with 0.1% FCS, penicillin (100 µ/mL), streptomycin (100 µg/mL) and 0.1% DMSO, or 0.1% DMSO alone as an untreated control. Each sample was prepared in at least four biologically independent replicates. […] Before drug administration, after the first medium exchange, 24 h after drug administration, and after fluorescence imaging cell confluence was assessed using the Tecan Spark Cyto, to account for changes in cell confluence due to drug administration and cell handling. Compound effects on cell confluence, apoptosis, metabolic activity and necrosis were normalized to the vehicle control of each biological replicate individually.

FGFR3 = target: T4, FGFR3 (Homo sapiens, UniProt P22607); experiment: Liability panel screening by DSF: FGFR3; format: binding; conditions: DSF, 20 µM, n=2; read-out: Mean ΔTM FGFR3
T4 construct: made in house
Description: as §1, §2, §3, §4

[4] = system: ATF6 activity in Hela ATF6 reporter cells; experiment: Endoplasmic reticulum stress assay (ATF6 Renilla luciferase reporter, tunicamycin); format: cell-based; conditions: Homo sapiens, HeLa, 1 µM, single replicates n=1 to n=5; read-out: ER stress [rel. ATF6 activity]
Description: After 24 h, cells were incubated with the test compounds solubilized with 0.1% DMSO in the same medium without puromycin. After 4 h incubation, tunicamycin (100 ng/mL) was added. After another 18 h incubation, cells were assayed for renilla luminescence using DualGlo reagent (Promega) on a Tecan SPARK Cyto (Tecan). Test samples were normalized to the 0.1% DMSO control. Each sample was repeated in five biologically independent experiments.

CSNK1D = target: T5, CSNK1D (Homo sapiens, UniProt P48730); experiment: Liability panel screening by DSF: CSNK1D; format: binding; conditions: DSF, 20 µM, n=2; read-out: Mean ΔTM CSNK1D
T5 construct: made in house
Description: as §1, §2, §3, §4

[5] = system: NF-κB activity in HEK293 NF-κB reporter cells; experiment: NF-kB activity assay (GFP reporter, ionomycin/PMA); format: cell-based; conditions: n=3
Description: Fig. 6 Application of the NR3 CG set.
After 24 h, cells were incubated with the test compounds solubilized with 0.1% DMSO in the same medium without puromycin. After 4 h incubation, ionomycin (100 ng/mL) and phorbol-12-myristat-13-acetate (PMA, 10 ng/mL) was added, and the cells were imaged for confluence and GFP expression every 90 min. over 24 h using a Tecan SPARK Cyto (Tecan). The number of GFP expressing cells was normalized to confluence in each sample. Each sample was repeated in three biologically independent experiments.

BRPF1 = target: T6, BRPF1 (Homo sapiens, UniProt P55201); experiment: Liability panel screening by DSF: BRPF1; format: binding; conditions: DSF, 20 µM, n=2; read-out: Mean ΔTM BRPF1
T6 construct: This panel comprised ten highly ligandable kinases and bromodomains; made in house
T6 sequence (P55201 628-732 limits assumed): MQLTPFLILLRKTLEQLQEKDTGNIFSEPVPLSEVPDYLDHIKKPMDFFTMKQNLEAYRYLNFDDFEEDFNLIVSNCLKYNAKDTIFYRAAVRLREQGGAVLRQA
Description: as §1, §2, §3, §4

HEK293T cells [6] = experiment: Cytotoxicity: apoptosis induction (caspase-3/7 DEVD fluorogenic DNA dye); conditions: 1 µM; HEK293T, 24 h; apoptotic cell count normalized to 0.1% DMSO; single replicates
MAPK1 = target: T7, MAPK1 (Homo sapiens, UniProt P28482); experiment: Liability panel screening by DSF: MAPK1; format: binding; conditions: DSF, 20 µM, n=2; read-out: Mean ΔTM MAPK1
T7 construct: made in house
Description: as §1, §2, §3, §4

AURKA = target: T8, AURKA (Homo sapiens, UniProt O14965); experiment: Liability panel screening by DSF: AURKA; format: binding; conditions: DSF, 20 µM, n=2; read-out: Mean ΔTM AURKA
T8 construct: made in house
T8 sequence (O14965 1-403): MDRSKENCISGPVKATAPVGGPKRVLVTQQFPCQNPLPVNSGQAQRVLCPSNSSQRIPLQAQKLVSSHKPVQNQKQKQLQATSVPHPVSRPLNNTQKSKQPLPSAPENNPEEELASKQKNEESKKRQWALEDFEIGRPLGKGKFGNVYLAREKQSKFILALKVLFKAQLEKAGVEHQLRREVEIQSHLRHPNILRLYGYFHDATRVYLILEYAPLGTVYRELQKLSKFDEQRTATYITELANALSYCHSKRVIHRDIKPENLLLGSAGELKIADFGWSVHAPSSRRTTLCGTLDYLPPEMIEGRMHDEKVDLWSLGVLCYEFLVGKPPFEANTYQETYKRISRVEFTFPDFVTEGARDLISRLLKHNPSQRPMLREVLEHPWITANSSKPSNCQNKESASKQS
Description: as §1, §2, §3, §4

ABL1 = target: T9, ABL1 (Homo sapiens, UniProt P00519); experiment: Liability panel screening by DSF: ABL1; format: binding; conditions: DSF, 20 µM, n=2; read-out: Mean ΔTM ABL1
T9 construct: made in house
Description: as §1, §2, §3, §4

GSK3B = target: T10, GSK3B (Homo sapiens, UniProt P49841); experiment: Liability panel screening by DSF: GSK3B; format: binding; conditions: DSF, 20 µM, n=2; read-out: Mean ΔTM GSK3B
T10 construct: made in house
T10 sequence (P49841 whole entry, species assumed): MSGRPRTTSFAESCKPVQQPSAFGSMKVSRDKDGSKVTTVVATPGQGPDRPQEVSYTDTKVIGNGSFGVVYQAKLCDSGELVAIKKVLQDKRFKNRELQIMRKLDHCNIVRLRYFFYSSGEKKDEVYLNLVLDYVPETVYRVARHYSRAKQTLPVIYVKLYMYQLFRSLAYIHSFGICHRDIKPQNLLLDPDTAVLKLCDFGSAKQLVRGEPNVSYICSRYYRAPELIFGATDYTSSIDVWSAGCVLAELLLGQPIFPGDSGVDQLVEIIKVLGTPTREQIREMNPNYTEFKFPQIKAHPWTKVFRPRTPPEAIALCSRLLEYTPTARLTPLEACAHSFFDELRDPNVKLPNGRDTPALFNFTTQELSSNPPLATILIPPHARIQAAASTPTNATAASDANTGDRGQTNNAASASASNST

T4 sequence (P22607 23-806, species assumed): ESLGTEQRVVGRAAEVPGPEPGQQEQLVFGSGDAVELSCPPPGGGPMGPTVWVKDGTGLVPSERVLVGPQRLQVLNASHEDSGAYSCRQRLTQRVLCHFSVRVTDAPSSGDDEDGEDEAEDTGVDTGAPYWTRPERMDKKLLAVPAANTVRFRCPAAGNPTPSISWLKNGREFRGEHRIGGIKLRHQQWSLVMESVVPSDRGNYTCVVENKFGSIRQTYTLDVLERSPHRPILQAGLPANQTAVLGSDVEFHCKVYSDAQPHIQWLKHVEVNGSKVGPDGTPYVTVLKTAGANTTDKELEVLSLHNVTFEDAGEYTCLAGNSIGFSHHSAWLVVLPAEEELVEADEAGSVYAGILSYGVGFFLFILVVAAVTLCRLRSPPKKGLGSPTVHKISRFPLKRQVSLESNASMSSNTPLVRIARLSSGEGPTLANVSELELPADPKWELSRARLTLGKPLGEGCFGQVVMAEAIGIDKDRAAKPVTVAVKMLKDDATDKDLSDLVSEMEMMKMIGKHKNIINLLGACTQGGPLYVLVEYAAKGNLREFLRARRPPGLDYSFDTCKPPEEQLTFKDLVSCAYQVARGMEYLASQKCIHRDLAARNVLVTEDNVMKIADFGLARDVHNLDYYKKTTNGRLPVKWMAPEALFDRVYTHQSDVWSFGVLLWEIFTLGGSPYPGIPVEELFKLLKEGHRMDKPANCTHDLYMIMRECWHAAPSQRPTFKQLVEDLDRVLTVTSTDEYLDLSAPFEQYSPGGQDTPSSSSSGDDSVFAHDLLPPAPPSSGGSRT
T9 sequence (P00519 whole entry, species assumed): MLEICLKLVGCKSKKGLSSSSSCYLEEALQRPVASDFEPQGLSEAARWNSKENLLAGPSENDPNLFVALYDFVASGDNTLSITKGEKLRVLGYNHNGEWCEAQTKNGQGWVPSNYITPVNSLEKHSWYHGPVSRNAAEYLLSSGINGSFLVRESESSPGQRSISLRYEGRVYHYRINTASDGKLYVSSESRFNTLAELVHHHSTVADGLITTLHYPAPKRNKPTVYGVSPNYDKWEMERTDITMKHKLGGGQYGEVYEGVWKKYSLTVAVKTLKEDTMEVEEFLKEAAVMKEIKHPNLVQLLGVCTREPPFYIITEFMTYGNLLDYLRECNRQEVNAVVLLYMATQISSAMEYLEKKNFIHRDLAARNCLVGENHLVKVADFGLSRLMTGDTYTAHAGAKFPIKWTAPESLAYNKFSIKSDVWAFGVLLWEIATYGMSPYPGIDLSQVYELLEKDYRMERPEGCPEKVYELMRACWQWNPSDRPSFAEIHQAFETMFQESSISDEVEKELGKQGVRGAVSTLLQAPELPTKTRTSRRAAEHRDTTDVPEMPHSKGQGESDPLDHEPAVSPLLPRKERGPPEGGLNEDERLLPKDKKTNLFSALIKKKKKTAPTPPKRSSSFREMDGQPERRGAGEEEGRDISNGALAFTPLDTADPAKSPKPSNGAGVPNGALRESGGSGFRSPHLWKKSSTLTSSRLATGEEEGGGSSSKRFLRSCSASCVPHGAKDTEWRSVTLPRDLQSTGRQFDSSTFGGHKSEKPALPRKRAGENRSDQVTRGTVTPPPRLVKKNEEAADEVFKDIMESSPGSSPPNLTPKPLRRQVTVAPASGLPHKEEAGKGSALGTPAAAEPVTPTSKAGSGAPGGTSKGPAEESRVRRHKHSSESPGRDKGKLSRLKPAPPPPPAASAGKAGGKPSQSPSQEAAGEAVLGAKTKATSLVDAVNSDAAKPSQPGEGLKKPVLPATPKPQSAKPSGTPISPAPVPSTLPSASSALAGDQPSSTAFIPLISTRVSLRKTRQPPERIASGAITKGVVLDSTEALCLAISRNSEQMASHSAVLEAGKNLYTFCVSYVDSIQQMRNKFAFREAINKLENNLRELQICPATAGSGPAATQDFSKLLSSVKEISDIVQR
T5 sequence (P48730 whole entry, species assumed): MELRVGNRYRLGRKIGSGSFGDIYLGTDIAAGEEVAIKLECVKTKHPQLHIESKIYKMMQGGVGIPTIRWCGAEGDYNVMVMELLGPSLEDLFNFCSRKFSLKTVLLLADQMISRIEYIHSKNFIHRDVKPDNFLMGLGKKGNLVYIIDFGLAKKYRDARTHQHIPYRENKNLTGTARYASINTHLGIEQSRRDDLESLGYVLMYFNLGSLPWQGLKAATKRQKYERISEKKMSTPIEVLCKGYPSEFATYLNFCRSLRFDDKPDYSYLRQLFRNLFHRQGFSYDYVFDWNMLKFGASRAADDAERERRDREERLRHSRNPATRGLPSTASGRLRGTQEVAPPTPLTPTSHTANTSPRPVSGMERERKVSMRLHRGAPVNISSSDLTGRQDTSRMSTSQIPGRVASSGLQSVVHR
T7 sequence (P28482 whole entry, species assumed): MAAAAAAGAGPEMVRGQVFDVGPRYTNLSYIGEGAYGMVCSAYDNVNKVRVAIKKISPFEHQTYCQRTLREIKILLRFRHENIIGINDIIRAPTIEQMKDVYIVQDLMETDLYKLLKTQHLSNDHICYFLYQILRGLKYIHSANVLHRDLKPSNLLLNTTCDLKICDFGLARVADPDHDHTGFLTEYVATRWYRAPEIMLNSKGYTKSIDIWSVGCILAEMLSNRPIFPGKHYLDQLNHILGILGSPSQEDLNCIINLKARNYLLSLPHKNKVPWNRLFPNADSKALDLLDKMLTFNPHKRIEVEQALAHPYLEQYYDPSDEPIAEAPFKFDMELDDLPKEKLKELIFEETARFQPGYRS

SMILES	ΔTm at 20 µM (TRIM24) [°C]	Metabolic activity [MA] (HEK293T cells [1])	ΔTm at 20 µM (CDK2) [°C]	ΔTm at 20 µM (BRD4) [°C]	Necrosis induction [NI] (HEK293T cells [3])	ΔTm at 20 µM (FGFR3) [°C]	ΔTm at 20 µM (CSNK1D) [°C]	Mean NFκB response ([5]; 1 µM, 1,5 h)	Mean NFκB response ([5]; 1 µM, 4,5 h)	Mean NFκB response ([5]; 1 µM, 7,5 h)	Mean NFκB response ([5]; 1 µM, 10,5 h)	Mean NFκB response ([5]; 1 µM, 13,5 h)	Mean NFκB response ([5]; 1 µM, 16,6 h)	Mean NFκB response ([5]; 1 µM, 19,5 h)	Mean NFκB response ([5]; 1 µM, 22,5 h)	Mean NFκB response ([5]; 1 µM, 3 h)	Mean NFκB response ([5]; 1 µM, 6 h)	Mean NFκB response ([5]; 1 µM, 9 h)	Mean NFκB response ([5]; 1 µM, 12 h)	Mean NFκB response ([5]; 1 µM, 15 h)	other results
O=C(/C=C/c1ccc(O)cc1)c1ccc(O)cc1O [Isoliquiritigenin]	-0.0317	1.06 and 1.13 and 1.02 (2×) and 1.07 and 1.01 and 1.10 and 1.11	1.64	1.51	0.85 and 0.80 and 0.45 and 1.05	1.26	1.31	3578.42 GFP+-cells/confluence ∙ 1000	4286.96 GFP+-cells/confluence ∙ 1000	9277.37 GFP+-cells/confluence ∙ 1000	19586.05 GFP+-cells/confluence ∙ 1000	28313.33 GFP+-cells/confluence ∙ 1000	34970.00 GFP+-cells/confluence ∙ 1000	39776.67 GFP+-cells/confluence ∙ 1000	43150.00 GFP+-cells/confluence ∙ 1000	3834.99 GFP+-cells/confluence ∙ 1000	5800.94 GFP+-cells/confluence ∙ 1000	14742.34 GFP+-cells/confluence ∙ 1000	24113.33 GFP+-cells/confluence ∙ 1000	32050.00 GFP+-cells/confluence ∙ 1000	Growth rate [GR] (HEK293T cells [2]): 0.68 and 1.38 and 0.82 and 1.00 and 0.76 and 0.96 and 1.05 and 0.37 and 0.91 and 1.86; activity at 1 µM [4]: 96%; Mean NFκB response ([5]; 1 µM, 18 h): 37423.33 GFP+-cells/confluence ∙ 1000; Mean NFκB response ([5]; 1 µM, 21 h): 41230.00 GFP+-cells/confluence ∙ 1000; Mean NFκB response ([5]; 1 µM, 24 h): 44476.67 GFP+-cells/confluence ∙ 1000; ΔTm at 20 µM (BRPF1): 0.82 °C; Apoptosis induction [AI] (HEK293T cells [6]): 0.29 and 1.26 and 0.88 and 1.02 and 0.64 and 1.54; ΔTm at 20 µM (MAPK1): 1.33 °C; ΔTm at 20 µM (AURKA): 1.81 °C; ΔTm at 20 µM (ABL1): 6.6 °C; ΔTm at 20 µM (GSK3B): 2.87 °C
Cc1c(N2C(=O)C3C(O)CCN3C2=O)ccc(C#N)c1Cl (stereo not drawn) [BMS564929]	0.44	1.09 and 1.08 and 0.94 and 1.07 (2×) and 0.99 and 0.92 and 1.10	0.04	-2.89	0.79 and 0.76 and 0.66 and 0.82	-0.04	-0.38	2292.65 GFP+-cells/confluence ∙ 1000	2993.37 GFP+-cells/confluence ∙ 1000	6319.46 GFP+-cells/confluence ∙ 1000	12250.00 GFP+-cells/confluence ∙ 1000	16870.00 GFP+-cells/confluence ∙ 1000	20913.33 GFP+-cells/confluence ∙ 1000	23700.00 GFP+-cells/confluence ∙ 1000	25766.67 GFP+-cells/confluence ∙ 1000	2425.99 GFP+-cells/confluence ∙ 1000	4160.27 GFP+-cells/confluence ∙ 1000	9390.00 GFP+-cells/confluence ∙ 1000	14670.00 GFP+-cells/confluence ∙ 1000	19226.67 GFP+-cells/confluence ∙ 1000	Mean NFκB response ([5]; 1 µM, 18 h): 22263.33 GFP+-cells/confluence ∙ 1000; Mean NFκB response ([5]; 1 µM, 21 h): 24826.67 GFP+-cells/confluence ∙ 1000; Mean NFκB response ([5]; 1 µM, 24 h): 26713.33 GFP+-cells/confluence ∙ 1000; ΔTm at 20 µM (BRPF1): 0.06 °C; Apoptosis induction [AI] (HEK293T cells [6]): 0.43 and 0.64 and 0.69 and 0.74 and 0.68 and 1.04; ΔTm at 20 µM (MAPK1): 0.12 °C; ΔTm at 20 µM (AURKA): -2.25 °C; ΔTm at 20 µM (ABL1): 0.02 °C; ΔTm at 20 µM (GSK3B): -0.71 °C
